According to patent US7238507B2, “Aspergillus ochraceus 11 alpha hydroxylase and oxidoreductase” (priority 2000, dated 2007):

Assays:
[1] = test system: Aspergillus ochraceus 11 alpha hydroxylase; experiment: HPLC assay of conversion of androstenedione to 11α-hydroxyandrostenedione by subcellular fractions of baculovirus-infected Sf9 cells co-expressing 11 alpha hydroxylase and human oxidoreductase; format: biochemical; conditions: 11 alpha hydroxylase co-expressed in Sf-9 insect cells with human oxidoreductase
Protocol: Microsomal and mitochondrial subcellular fractions were prepared from insect cells co-infected with recombinant baculoviruses expressing recombinant Aspergillus ochraceus 11 alpha hydroxylase and human oxidoreductase cloned from HepG2 cell RNA. The subcellular fractions were incubated with 250 μM androstenedione (AD) in the presence of an NADPH-generating system for 120 minutes, and the resulting products were separated by HPLC and monitored by ultraviolet detection at 247 nm. Hydroxlase activity was found in the microsomal fraction, as expected, but also appeared in the mitochondrial fraction. […] Panel A illustrates a reaction carried out using enzyme prepared from a mitochondrial fraction. The peak in panel A that elutes after AD appears to be testosterone. When a microsomal fraction was used, almost as much AD was converted to 11 alpha hydroxy AD, but relatively more testosterone was also produced. Panel B illustrates the same reaction carried out for 120 minutes without a source of enzyme. Panel C illustrates an HPLC tracing with 11α-hydroxyandrostenedione standard added to incubation buffer.
Sf9 cells were co-infected with virus particles that contained the steroid 11 alpha hydroxylase cDNA and a separate virus containing a human NADPH P450-oxidoreductase. Both viruses were added at a multiplicity of infection (MOI) ratio of 0.1:0.01 (11 aOH to oxr). […]

[2] = test system: Aspergillus ochraceus spores; experiment: 11 α-hydroxylation of canrenone by A. ochraceus spores, media extract analysed by HPLC; format: cell-based; conditions: spores incubated approximately 26 hours at 30° C. with 0.1 g canrenone in 400 ml; data not shown
Protocol: Aspergillus ochraceus ATCC 18500 stock culture (50 ul) was grown for 3-4 days on plates containing sporulation medium: 50 g/L molasses, 5 g/L cornsteep liquid, 5 g/L KH2PO4, 25 g/L NaCl, 25 g/L glucose, 20 g/L agar, and 0.4 g/L progesterone, pH 5.8. Progesterone was included in the media to induce the steroid 11 α-hydroxylase. Spores were scraped from the plates into 5 to 7 ml saline, washed in saline, collected by centrifugation, and suspended in saline containing 15% glycerol. The spores were frozen on dry ice and stored at −80° C. Approximately 0.8 g spores were incubated at 30° C. in a 1 liter flask containing 400 ml 1% glucose, 50 mM KH2PO4 and 0.1 g canrenone, pH 7.0. This treatment prior to spore disruption has three benefits: (1) to induce the steroid 11 α-hydroxylase by incubation with canrenone; (2) to determine whether the spores were catalyzing the 11 α-hydroxylation of canrenone; (3) and to soften the spore wall. After approximately 26 hours of incubating with shaking at 30° C. to provide better aeration, the spores were collected by centrifugation. […]
Approximately 160 ml of media from the spore induction was extracted three times with 70 ml ethyl acetate to collect the steroid substrate and products. […] The residue was dissolved in 8 ml methanol so that the final concentration of canrenone was approximately 15 mM (assuming quantitative recovery). […]

| SMILES | conversion of the steroid substrate to 11 alpha-hydroxy-AD as determined by HPLC analysis [1] | 11 α-hydroxylation of canrenone, HPLC of media extract monitored at 254 nm [2] |
| --- | --- | --- |
| C[C@]12CCC(=O)C=C1CC[C@@H]1[C@@H]2CC[C@]2(C)C(=O)CC[C@@H]12 [AD, Androst-4-ene-3,17-dione(8CI,9CI)] | successfully catalyzed the conversion | – |
| C[C@]12CCC(=O)C=C1C=C[C@@H]1C2CC[C@@]2(C)C1CC[C@@]21CCC(=O)O1 (stereo partly drawn) [canrenone, Pregna-4,6-diene-21-carboxylic acid,17-hydroxy-3-oxo-,γ-lactone, (17α)-(9CI)] | – | exhibited a component with the same retention time as the 11 α-hydroxy canrenone standard |
